Results reported in US11179383B2 (Gilead Sciences, Inc., priority 2018, dated 2021).

Target: T1, α4β7 integrin (Homo sapiens, UniProt P13612+P26010)
T1 construct: monitoring the capture of α4β7 integrin expressing cells on a recombinant MadCAM-1 extracellular domain-coated plate; endogenous in cells; host or cells: RPMI8866 cells
T1 sequence (P13612 34-1032): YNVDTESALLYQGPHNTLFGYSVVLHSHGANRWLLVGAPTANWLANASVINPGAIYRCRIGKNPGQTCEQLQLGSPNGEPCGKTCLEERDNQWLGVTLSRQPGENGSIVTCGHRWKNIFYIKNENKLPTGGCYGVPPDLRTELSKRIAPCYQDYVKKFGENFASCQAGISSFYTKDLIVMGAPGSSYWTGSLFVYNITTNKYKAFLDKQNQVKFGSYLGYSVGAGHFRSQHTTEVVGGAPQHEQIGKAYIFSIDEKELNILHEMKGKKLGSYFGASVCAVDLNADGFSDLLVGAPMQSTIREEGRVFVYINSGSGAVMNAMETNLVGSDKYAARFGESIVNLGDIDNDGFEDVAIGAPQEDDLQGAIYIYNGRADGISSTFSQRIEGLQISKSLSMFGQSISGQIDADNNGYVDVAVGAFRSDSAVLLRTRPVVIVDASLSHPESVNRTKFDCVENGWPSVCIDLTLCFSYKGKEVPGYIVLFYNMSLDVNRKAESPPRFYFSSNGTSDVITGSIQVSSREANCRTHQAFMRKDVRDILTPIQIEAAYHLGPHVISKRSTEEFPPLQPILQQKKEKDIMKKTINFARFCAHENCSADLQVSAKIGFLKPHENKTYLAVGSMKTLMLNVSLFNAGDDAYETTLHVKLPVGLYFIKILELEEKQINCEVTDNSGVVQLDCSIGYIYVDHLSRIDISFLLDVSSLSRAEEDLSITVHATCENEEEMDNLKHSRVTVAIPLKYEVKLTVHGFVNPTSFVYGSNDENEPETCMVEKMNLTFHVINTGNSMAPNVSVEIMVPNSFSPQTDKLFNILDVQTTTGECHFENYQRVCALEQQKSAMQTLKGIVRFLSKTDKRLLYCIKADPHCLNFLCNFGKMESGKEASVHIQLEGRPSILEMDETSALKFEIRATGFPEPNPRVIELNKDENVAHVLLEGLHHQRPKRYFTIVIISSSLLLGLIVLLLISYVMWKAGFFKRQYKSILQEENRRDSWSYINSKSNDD
T1 sequence (P26010 20-798): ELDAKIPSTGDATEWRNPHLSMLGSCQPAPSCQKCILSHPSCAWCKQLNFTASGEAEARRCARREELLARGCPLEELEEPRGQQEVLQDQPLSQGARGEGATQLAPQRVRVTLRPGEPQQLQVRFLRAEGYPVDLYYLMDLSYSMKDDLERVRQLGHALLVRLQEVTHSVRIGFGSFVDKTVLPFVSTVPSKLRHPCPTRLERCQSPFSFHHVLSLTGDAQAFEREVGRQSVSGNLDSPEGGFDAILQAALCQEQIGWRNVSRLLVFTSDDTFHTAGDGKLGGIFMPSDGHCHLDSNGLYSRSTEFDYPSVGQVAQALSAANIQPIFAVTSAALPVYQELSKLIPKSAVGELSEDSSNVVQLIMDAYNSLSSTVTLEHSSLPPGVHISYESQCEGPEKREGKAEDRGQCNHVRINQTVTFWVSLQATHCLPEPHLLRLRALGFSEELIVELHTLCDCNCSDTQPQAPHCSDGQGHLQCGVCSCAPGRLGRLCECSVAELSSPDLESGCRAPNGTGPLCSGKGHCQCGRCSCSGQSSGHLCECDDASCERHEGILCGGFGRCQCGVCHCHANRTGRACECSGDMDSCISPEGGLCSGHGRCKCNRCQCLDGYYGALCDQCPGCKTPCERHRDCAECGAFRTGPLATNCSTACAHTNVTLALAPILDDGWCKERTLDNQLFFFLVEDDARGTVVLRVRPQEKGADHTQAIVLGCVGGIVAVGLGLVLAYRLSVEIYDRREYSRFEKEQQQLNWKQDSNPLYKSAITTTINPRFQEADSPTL
Assay: α4β7 Integrin Cell Capture Assay
Assay type: cell-based
Conditions: capture of α4β7 integrin expressing RPMI8866 cells on recombinant MadCAM-1 extracellular domain-coated plate; DMEM+0.5% FBS+0.5 mM MnCl2; read-out: EC50 α4β7
Summary of the method: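 RPMI8866 cells in DMEM + 0.5% FBS + 0.5 mM MnCl2 preincubated with compound 1 h at 37 °C, then allowed to bind 30 min at 37 °C to plates coated with MAdCAM-1 extracellular domain (1.0 μg/mL). Cells fixed with glutaraldehyde, Hoechst-stained, imaged and bound cells counted; EC50 from cell count versus concentration.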

EC50 [nM]	SMILES
16.7	Cn1cc(Cl)cc(-c2ccc(C[C@H](NC(=O)c3c(Cl)cccc3Cl)C(=O)O)c3ncccc23)c1=O [Example 29, (S)-3-(5-(5-chloro-1-methyl-2-oxo-1,2-dihydropyridin-3-yl)quinolin-8-yl)-2-(2,6-dichlorobenzamido)propanoic acid]
85	O=C(N[C@@H](Cc1ccc(-c2nccnc2C(F)(F)F)c2cccnc12)C(=O)O)c1c(Cl)cccc1Cl [Example 15, (S)-2-(2,6-dichlorobenzamido)-3-(5-(3-(trifluoromethyl)pyrazin-2-yl)quinolin-8-yl)propanoic acid]
0.5	CC[C@@H](Nc1cc(F)c(C(=O)N[C@@H](Cc2ccc(-c3c(OC)cc(C)n(C)c3=O)c3ccccc23)C(=O)O)c(F)c1)C(F)(F)F (single isomer, unassigned) [Example 131]
22.2	Cc1ccnc2c(C[C@H](NC(=O)c3c(Cl)cccc3Cl)C(=O)O)ccc(-c3cc4ccccc4n(C)c3=O)c12 [Example 100, (S)-2-(2,6-dichlorobenzamido)-3-(1,4′-dimethyl-2-oxo-1,2-dihydro-[3,5′-biquinolin]-8′-yl)propanoic acid]
0.8	CC[C@@H](Nc1cc(F)c(C(=O)N[C@@H](Cc2ccc(-c3c(C)n(C)c(=O)n(C)c3=O)c3cccnc23)C(=O)O)c(F)c1)C(F)(F)F (single isomer, unassigned) [Example 8]
12.2	Cc1ccc(-c2ccc(C[C@H](NC(=O)c3c(Cl)cccc3Cl)C(=O)O)c3ncccc23)c(=O)n1C [Example 33, (S)-2-(2,6-dichlorobenzamido)-3-(5-(1,6-dimethyl-2-oxo-1,2-dihydropyridin-3-yl)quinolin-8-yl)propanoic acid]
0.6	CC[C@@H](Nc1cc(F)c(C(=O)N[C@@H](Cc2ccc(-c3c(OC)cc(C)n(C)c3=O)c3ccccc23)C(=O)O)c(F)c1)C(F)(F)F (single isomer, unassigned) [Example 130]
45.7	COc1cc(F)c(F)cc1-c1ccc(C[C@H](NC(=O)c2c(F)cccc2F)C(=O)O)c2ncccc12 [Example 79, (S)-3-(5-(4,5-difluoro-2-methoxyphenyl)quinolin-8-yl)-2-(2,6-difluorobenzamido) propanoic acid]
0.1	Cc1cc(C(F)(F)F)c(-c2ccc(C[C@H](NC(=O)c3c(F)cc(N4CCOC[C@@H]4C(F)(F)F)cc3F)C(=O)O)c3nccnc23)c(=O)n1C (atropisomer, axis not shown) [Example 179]
15.2	COc1cc(F)c(F)cc1-c1ccc(C[C@H](NC(=O)c2c(Cl)cccc2Cl)C(=O)O)c2nccc(Cl)c12 (single isomer, unassigned) [Example 95]
538	O=C(N[C@@H](Cc1ccc(-c2c(Cl)cccc2C(F)(F)F)c2cccnc12)C(=O)O)c1c(Cl)cccc1Cl [Example 44, (2S)-3-(5-(2-chloro-6-(trifluoromethyl)phenyl)quinolin-8-yl)-2-(2,6-dichlorobenzamido)propanoic acid]
60.4	Cc1c(-c2ccc(C[C@H](NC(=O)c3c(Cl)cccc3Cl)C(=O)O)c3ncccc23)c(=O)n(C)c2cc(Cl)ccc12 (single isomer, unassigned) [Example 77]
393	O=C(N[C@@H](Cc1ccc(-c2c(Cl)cc(F)cc2Cl)c2cccnc12)C(=O)O)c1c(F)cc(N[C@H](c2ccccc2)C(F)(F)F)cc1F [Example 3, (S)-3-(5-(2,6-dichloro-4-fluorophenyl)quinolin-8-yl)-2-(2,6-difluoro-4-(((R)-2,2,2-trifluoro-1-phenylethyl)amino)benzamido)propanoic acid]
10.9	Cn1c(=O)c(-c2ccc(C[C@H](NC(=O)c3c(F)cccc3F)C(=O)O)c3ncccc23)cc2ccccc21 [Example 84, (S)-2-(2,6-difluorobenzamido)-3-(1-methyl-2-oxo-1,2-dihydro-[3,5′-biquinolin]-8′-yl)propanoic acid]
243	COc1c(F)cccc1-c1ccc(C[C@H](NC(=O)c2c(Cl)cccc2Cl)C(=O)O)c2ncccc12 [Example 45, (S)-2-(2,6-dichlorobenzamido)-3-(5-(3-fluoro-2-methoxyphenyl)quinolin-8-yl)propanoic acid]
9.2	COc1cnn(C)c(=O)c1-c1ccc(C[C@H](NC(=O)c2c(Cl)cccc2Cl)C(=O)O)c2ncccc12 [Example 69, (S)-2-(2,6-dichlorobenzamido)-3-(5-(5-methoxy-2-methyl-3-oxo-2,3-dihydropyridazin-4-yl)quinolin-8-yl)propanoic acid]
29.9	O=C(N[C@@H](Cc1ccc(-c2ncc3ccccc3c2Br)c2ccccc12)C(=O)O)c1c(F)cccc1F [Example 114, (S)-3-(4-(4-bromoisoquinolin-3-yl)naphthalen-1-yl)-2-(2,6-difluorobenzamido)propanoic acid]
38.8	COc1cc(F)cc(Cl)c1-c1ccc(C[C@H](NC(=O)c2c(Cl)cccc2Cl)C(=O)O)c2ncccc12 (single isomer, unassigned) [Example 54]
0.6	CCOCc1cc(OC)c(-c2ccc(CC(NC(=O)c3c(F)cc(NS(=O)(=O)c4ccc(-c5ccnc(F)c5)cc4)cc3F)C(=O)O)c3cnn(C)c23)c(OC)c1 (stereo not drawn) [Example 146, 2-(2,6-difluoro-4-((4-(2-fluoropyridin-4-yl)phenyl)sulfonamido)benzamido)-3-(7-(4-(ethoxymethyl)-2,6-dimethoxyphenyl)-1-methyl-1H-indazol-4-yl)propanoic acid]
115	COc1cc(F)cc(Cl)c1-c1ccc(C[C@H](NC(=O)c2c(Cl)cccc2Cl)C(=O)O)c2ncccc12 [Example 36, (2S)-3-(5-(2-chloro-4-fluoro-6-methoxyphenyl)quinolin-8-yl)-2-(2,6-dichlorobenzamido)propanoic acid]
6	COc1ccn(C)c(=O)c1-c1ccc(CC(NC(=O)c2c(Cl)cccc2Cl)C(=O)O)c2ncccc12 (stereo not drawn) [Example 32, 2-(2,6-Dichlorobenzamido)-3-(5-(4-methoxy-1-methyl-2-oxo-1,2-dihydropyridin-3-yl)quinolin-8-yl)propanoic acid]
131	Cc1c(-c2ccc(C[C@H](NC(=O)c3c(Cl)cccc3Cl)C(=O)O)c3ncccc23)c(=O)n(C)c2cc(Cl)ccc12 [Example 74, (S)-3-(7-chloro-1,4-dimethyl-2-oxo-1,2-dihydro-[3,5′-biquinolin]-8′-yl)-2-(2,6-dichlorobenzamido)propanoic acid]
1.1	Cc1c(-c2ccc(C[C@H](NC(=O)c3c(Cl)cccc3Cl)C(=O)O)c3ncccc23)c(=O)n(C)c2ccc(F)cc12 [Example 10, (S)-2-(2,6-dichlorobenzamido)-3-(6-fluoro-1,4-dimethyl-2-oxo-1,2-dihydro-[3,5′-biquinolin]-8′-yl)propanoic acid]
2.5	Cc1c(-c2ccc(C[C@H](NC(=O)c3c(Cl)cccc3Cl)C(=O)O)c3ncccc23)c(=O)n(C)c2ccc(Cl)cc12 [Example 67, (S)-3-(6-chloro-1,4-dimethyl-2-oxo-1,2-dihydro-[3,5′-biquinolin]-8′-yl)-2-(2,6-dichlorobenzamido)propanoic acid]
